The source of these data is US20100150890A1, “MEDICINAL COMPOSITION, FOOD OR DRINK HAVING EFFECT OF ENHANCING SYMPATHETIC NERVOUS ACTIVITY” (SUNTORY HOLDINGS LIMITED, priority 2005, published 2010).

Format in all cases: in vivo
Series [1] relates to kidney sympathetic nervous activity. As to the kind of experiment: Rat kidney sympathetic nervous activity after transduodenal administration. The settings on record: urethane-anesthetized male rat, transduodenal 10 μg/2 ml per animal, vs physiological saline control; FIG. 3. The method, then:
(§1) In these experiments, use was made of male Mister rats weighing about 300 g which had been fed in a thermostatic chamber (24° C.) with a light-dark cycle of 12-hour intervals (under illumination from 8:00 to 20:00) for 1 week or longer. A single rat was employed for each nervous experiment. The animals were fed with a feed (Oriental Yeast, MF) and water ad libitum. The autonomic nervous activity were examined by fasting the rats for 3 hours on the day of the experiment and then subjecting to an abdominal surgery under urethane-anesthesia at the intermediate point of the light period. Then, the effects of the transduodenal administration of 2,3-dihydro-3,5-dihydroxy-6-methyl-4H-pyran-4-one obtained in Example 1 on the kidney sympathetic nervous activity, stomach vagal (parasympathetic) nervous activity and blood pressure were measured in accordance with the method reported by T. Yamano et al., Neurosci. […] A cannula was inserted into the left femoral artery and then the blood pressure was measured by use of a transducer. […] Electrical nervous activity thus obtained were amplified with a condenser type differential amplifier, monitored with an oscilloscope and recorded on a magnetic tape. […] The data was analyzed based on the average discharge frequency per 5 seconds (pulse/5 sec) and expressed as a percentage by referring to the level before the administration as to 100%. […]

The nature of series [2]: Rat blood pressure after transduodenal administration (left femoral artery cannula, transducer). To be noted: urethane-anesthetized male rat, transduodenal 10 μg/2 ml per animal, vs physiological saline control; FIG. 4. The method, then: as §1
Series [3] deals with stomach vagal (parasympathetic) nervous activity. As to the kind of experiment: Rat stomach vagal (parasympathetic) nervous activity after transduodenal administration. To be noted: urethane-anesthetized male rat, transduodenal 10 μg/2 ml per animal, vs physiological saline control; FIG. 5. Here is the method:
as §1

Series [4] concerns interscapular brown adipose tissue sympathetic nervous activity. As to the kind of experiment: Rat interscapular brown adipose tissue sympathetic nervous activity after transduodenal administration. The settings on record: transduodenal administration 10 μg, single rat, FIG. 6.
The subject of series [5] is epididymal white adipose tissue sympathetic nervous activity. As to the kind of experiment: Rat epididymal white adipose tissue sympathetic nervous activity after transduodenal administration. The settings on record: transduodenal administration 10 μg, single rat, FIG. 7.
The nature of series [6]: Rat oxygen consumption (energy metabolism) after forced oral administration. The settings on record: male SD rats fasted 16 hours, 40 μg/8 ml/kg body weight forced oral, within 60 minutes after administration, 5 rats per group; FIG. 8. The method, then: Male SD rats aged 7 weeks were preliminarily fed with a solid feed (CE-2: NIPPON CREA) and water ad libitum for 1 week for the habituation to the light-dark cycle of 12-hour intervals. The thus habituated animals were fasted for 16 hours before the administration of the samples and then divided into two groups. Then, 40 μg/8 ml/kg body weight of DDMP and 8 ml/kg body weight of distilled water for injection were forcibly orally administered into the stomach to the respective groups. Within 60 minutes following the administration, oxygen consumption was measured with a metabolic meter for small animals (MK-5000RQ2: manufactured by MUROMACHI KIKAI Co., Ltd.). A combination of a DDMP-administered rat with a water-administered rat was referred to as a single experimental lot and the averages of five combinations (i.e., a DDMP-administered group having 5 rats and a water-administered group having 5 rats) were calculated.

Structures are written as SMILES.

As for `CC1=C(O)C(=O)C(O)CO1` (stereo not drawn) [DDMP, 2,3-Dihydro-3,5-dihydroxy-6-methyl-4H-pyran-4-one], in series [1], the “kidney sympathetic nervous activity (discharge frequency vs level before administration)” value is “enhanced”. The blood pressure entry in series [2] was “not elevated”. For the same molecule, the “stomach vagal (parasympathetic) nervous activity” value in series [3] is on record as “reduced”. In series [4], the “interscapular brown adipose tissue sympathetic nervous activity” value is listed as “enhanced”. In series [5], the “epididymal white adipose tissue sympathetic nervous activity” value is reported as “enhanced”. For the same molecule, in series [6], the “oxygen consumption compared with the water-administered group” value was “increase in oxygen consumption”.
